According to patent US20230382910A1, “HETEROARYL COMPOUNDS FOR THE TREATMENT OF PAIN” (VERTEX PHARMACEUTICALS INCORPORATED, priority 2022, published 2023):

These compounds were tested against human NaV 1.8 (Homo sapiens, UniProt Q9Y5Y9) (assay: E-VIPR Assay Detecting and Measuring NaV Inhibition Properties). Settings: HEK cells expressing a truncated form of human NaV 1.8; electrical stimulation, membrane potential FRET dyes; read-out: measured IC50 value in the E-VIPR Assay.
Type: cell-based
Excerpt: E-VIPR Assay Detecting and Measuring NaV Inhibition Properties
Sodium ion channels are voltage-dependent proteins that can be activated by inducing membrane voltage changes by applying electric fields. The electrical stimulation instrument and methods of use, referred to as E-VIPR, are described in International Publication No. WO 2002/008748 A3 and C.-J. Huang et al. Characterization of voltage-gated sodium channel blockers by electrical stimulation and fluorescence detection of membrane potential, 24 Nature Biotech. 439-46 (2006), both of which are incorporated by reference in their entirety. The instrument comprises a microtiter plate handler, an optical system for exciting the coumarin dye while simultaneously recording the coumarin and oxonol emissions, a waveform generator, a current- or voltage-controlled amplifier, and parallel electrode pairs that are inserted into assay plate wells. Under integrated computer control, this instrument passes user-programmed electrical stimulus protocols to cells within the wells of the microtiter plate.
16-20 hours prior to running the assay on E-VIPR, HEK cells expressing a truncated form of human NaV 1.8 with full channel activity were seeded into microtiter 384-well plates, pre-coated with matrigel, at a density of 25,000 cells per well. 2.5-5% KIR2.1 BacMam virus was added to the final cell suspension before seeding into cell plates. HEK cells were grown in Dulbecco's Modified Eagle's Medium (DMEM) supplemented with 10% FBS (Fetal Bovine Serum, qualified; Sigma #F4135), 1% NEAA (Non-Essential Amino Acids, Gibco #11140), 1% HEPES (Gibco #15630), 1% Pen-Strep (Penicillin-Streptomycin; Gibco #15140) and 5 μg/ml Blasticidin (Gibco #R210-01). Cells were expanded in 5-layer CellSTACK culture chambers or cell culture flasks with vented caps, with 90-95% humidity and 5% CO2.
Compound Loading Buffer (2× concentration): Na/TMA Cl Bath1 Buffer containing HS (omitted in experiments run in the absence of human serum (HS)) 50%, VABSC-1 1 mM, BSA 0.2 mg/ml (in Bath-1), KCl 9 mM, DMSO 0.625%.
Assay Protocol (7 Key Steps):
1) To reach the final concentration in each well, 375 nL of each compound was pre-spotted (in neat DMSO) into polypropylene compound plates at 240× desired final concentration from an intermediate stock concentration of 0.075 mM, in an 11-point dose response, 3-fold dilution, resulting in a top dose of 300 nM final concentration in the cell plate. Vehicle control (neat DMSO), and positive control (an established NaV1.8 inhibitor, 25 μM final in assay in DMSO) were added manually to the outermost columns of each plate respectively. The compound plate was backfilled with 45 μL per well of Compound Loading Buffer resulting in a 240-fold dilution of compound following a 1:1 transfer of compound into the cell plate (see Step 6). Final DMSO concentration for all wells in the assay was 0.625% (0.75% DMSO was supplemented to the Compound Loading Buffer for a final DMSO concentration of 0.625%). This assay dilution protocol was adjusted to enable a higher dose range to be tested in the presence of HS or if the final assay volume was altered.
2) Hexyl Dye Solution was prepared.
3) Cell plates were prepared. On the day of the assay, the media was aspirated, and the cells were washed three times with 80 μL of Bath-1 buffer, maintaining 25 μL residual volume in each well.
4) 25 μL per well of Hexyl Dye Solution was dispensed into the cell plates. The cells were incubated for 20 minutes at room temperature or ambient conditions in darkness.
5) 45 μL per well of Compound Loading Buffer was dispensed into compound plates.
6) The cell plates were washed three times with 80 μL per well of Bath-1 Buffer, leaving 25 µL of residual volume. Then 25 μL per well from compound plate was transferred to each cell plate. The mixture was incubated for 30 minutes at room temperature/ambient conditions. […]

human NaV 1.8, sequence (Q9Y5Y9 126-399 limits assumed): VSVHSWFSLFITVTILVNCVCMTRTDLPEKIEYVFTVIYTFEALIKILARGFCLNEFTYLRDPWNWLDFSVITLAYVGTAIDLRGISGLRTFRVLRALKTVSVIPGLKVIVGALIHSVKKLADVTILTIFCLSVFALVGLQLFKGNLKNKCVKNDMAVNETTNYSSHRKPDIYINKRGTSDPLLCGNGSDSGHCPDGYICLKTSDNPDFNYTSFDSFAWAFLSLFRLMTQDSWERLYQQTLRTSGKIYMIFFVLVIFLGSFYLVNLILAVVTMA
human NaV 1.8, sequence (Q9Y5Y9 660-890 limits assumed): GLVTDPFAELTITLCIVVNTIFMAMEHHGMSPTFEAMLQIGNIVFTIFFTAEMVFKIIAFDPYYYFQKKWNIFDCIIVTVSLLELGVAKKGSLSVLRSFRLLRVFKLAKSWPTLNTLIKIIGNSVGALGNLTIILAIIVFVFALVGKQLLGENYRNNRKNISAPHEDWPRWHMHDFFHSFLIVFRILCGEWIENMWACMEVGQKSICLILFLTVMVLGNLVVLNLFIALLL
human NaV 1.8, sequence (Q9Y5Y9 1148-1722 limits assumed): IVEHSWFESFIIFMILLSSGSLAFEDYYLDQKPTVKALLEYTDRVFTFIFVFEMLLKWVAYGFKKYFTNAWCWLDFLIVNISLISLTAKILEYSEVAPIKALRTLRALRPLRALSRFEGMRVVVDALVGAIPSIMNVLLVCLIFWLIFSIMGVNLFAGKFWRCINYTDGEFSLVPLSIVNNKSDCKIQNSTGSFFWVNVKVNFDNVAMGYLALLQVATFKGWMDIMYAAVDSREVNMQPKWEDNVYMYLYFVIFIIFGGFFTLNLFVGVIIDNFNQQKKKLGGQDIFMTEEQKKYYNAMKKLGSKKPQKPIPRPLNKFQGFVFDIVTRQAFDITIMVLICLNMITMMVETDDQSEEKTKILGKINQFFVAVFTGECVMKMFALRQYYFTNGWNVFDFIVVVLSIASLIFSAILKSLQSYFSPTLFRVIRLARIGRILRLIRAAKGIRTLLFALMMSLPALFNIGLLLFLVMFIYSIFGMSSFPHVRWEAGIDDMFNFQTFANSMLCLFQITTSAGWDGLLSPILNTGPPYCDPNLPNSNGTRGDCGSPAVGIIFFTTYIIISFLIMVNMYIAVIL

IC50 [nM]	SMILES
500 to 2000	Cc1cc(C(C)(CO)C(F)(F)F)c(Cl)cc1-c1cc(=O)c2c(C(N)=O)nccc2[nH]1 (single isomer, unassigned) [Compound 365]
500 to 2000	Cc1cc(C2CC2)ccc1-c1cc(=O)c2ccccc2[nH]1 [Compound 8, 2-(4-cyclopropyl-2-methyl-phenyl)-1H-quinolin-4-one]
500 to 2000	Cc1c(-c2cc(=O)c3ccccc3[nH]2)ccc2c1CCC2 [Compound 12, 2-(4-methylindan-5-yl)-1H-quinolin-4-one]
2000 to 5000	Cc1ccc(C(F)(F)F)cc1-c1cc(=O)c2ccccc2[nH]1 [Compound 17, 2-[2-methyl-5-(trifluoromethyl)phenyl]-1H-quinolin-4-one]
2000 to 5000	COc1cc(C(F)(F)F)ccc1-c1cc(=O)c2ccccc2[nH]1 [Compound 19, 2-[2-methoxy-4-(trifluoromethyl)phenyl]-1H-quinolin-4-one]
2000 to 5000	CCOc1cc(C(F)(F)F)ccc1-c1cc(=O)c2ccccc2[nH]1 [Compound 28, 2-[2-ethoxy-4-(trifluoromethyl)phenyl]-1H-quinolin-4-one]
500 to 2000	Cc1cc(OC(F)(F)F)ccc1-c1cc(=O)c2ccccc2[nH]1 [Compound 54, 2-[2-methyl-4-(trifluoromethoxy)phenyl]-1H-quinolin-4-one]
2000 to 5000	COc1cc(C)c(C)cc1-c1cc(=O)c2ccccc2[nH]1 [Compound 72, 2-(2-methoxy-4,5-dimethyl-phenyl)-1H-quinolin-4-one]
500 to 2000	Cc1ccc(-c2cc(=O)c3ccccc3[nH]2)c(C)c1Cl [Compound 74, 2-(3-chloro-2,4-dimethyl-phenyl)-1H-quinolin-4-one]
500 to 2000	Cc1cc(C(C)(C)C)ccc1-c1cc(=O)c2c[n+]([O-])ccc2[nH]1 [Compound 107, 2-(4-tert-butyl-2-methyl-phenyl)-6-oxido-1H-1,6-naphthyridin-6-ium-4-one]
2000 to 5000	Cc1cc(C(C)(C)C)ccc1-c1cc(=O)c2cccnc2[nH]1 [Compound 111, 2-(4-tert-butyl-2-methyl-phenyl)-1H-1,8-naphthyridin-4-one]
500 to 2000	Cc1ccc2[nH]c(-c3ccc(C(C)(C)C)cc3C)cc(=O)c2c1 [Compound 126, 2-(4-tert-butyl-2-methyl-phenyl)-6-methyl-1H-quinolin-4-one]
500 to 2000	Cc1cc(-c2cc(=O)c3c(=O)[nH]ccc3[nH]2)c(C)nc1C(F)(F)F [Compound 200, 2-[2,5-dimethyl-6-(trifluoromethyl)-3-pyridyl]-1,6-dihydro-1,6-naphthyridine-4,5-dione]
500 to 2000	Cc1cc(C(C)(C)C)ccc1-c1cc(=O)c2cccc(C)c2[nH]1 [Compound 209, 2-(4-tert-butyl-2-methyl-phenyl)-8-methyl-1H-quinolin-4-one]
500 to 2000	Cc1ccc(C(C)(C)C)cc1-c1cc(=O)c2c(C(N)=O)nccc2[nH]1 [Compound 212, 2-(5-tert-butyl-2-methyl-phenyl)-4-oxo-1H-1,6-naphthyridine-5-carboxamide]
500 to 2000	Cc1nc(C(C)(C)C)ccc1-c1cc(=O)c2c(C(N)=O)nccc2[nH]1 [Compound 221, 2-(6-tert-butyl-2-methyl-3-pyridyl)-4-oxo-1H-1,6-naphthyridine-5-carboxamide]

More lines, now with the values behind:

SMILES	IC50 [nM]
CC(C)(C)c1ccc(-c2cc(=O)c3ccccc3[nH]2)cc1 [Compound 5, 2-(4-tert-butylphenyl)-1H-quinolin-4-one]	500 to 2000
Cc1ccc(-c2cc(=O)c3ccccc3[nH]2)c(C)c1 [Compound 6, 2-(2,4-dimethylphenyl)-1H-quinolin-4-one]	2000 to 5000
Cc1ccc(C(C)(C)C)cc1-c1cc(=O)c2ccccc2[nH]1 [Compound 7, 2-(5-tert-butyl-2-methyl-phenyl)-1H-quinolin-4-one]	500 to 2000
COc1cc(C)c(-c2cc(=O)c3ccccc3[nH]2)cc1C [Compound 23, 2-(4-methoxy-2,5-dimethyl-phenyl)-1H-quinolin-4-one]	2000 to 5000
Cc1ccc(C)c(-c2cc(=O)c3ccccc3[nH]2)c1 [Compound 52, 2-(2,5-dimethylphenyl)-1H-quinolin-4-one]	2000 to 5000
O=c1cc(-c2cc3c(cc2Cl)CCC3)[nH]c2ccccc12 [Compound 70, 2-(6-chloroindan-5-yl)-1H-quinolin-4-one]	2000 to 5000
Cc1cc(Cl)ccc1-c1cc(=O)c2ccccc2[nH]1 [Compound 75, 2-(4-chloro-2-methyl-phenyl)-1H-quinolin-4-one]	2000 to 5000
Cc1cc(Cl)c(Cl)cc1-c1cc(=O)c2ccccc2[nH]1 [Compound 117, 2-(4,5-dichloro-2-methyl-phenyl)-1H-quinolin-4-one]	500 to 2000
Cc1cc(Cl)c(Cl)cc1-c1cc(=O)c2cnccc2[nH]1 [Compound 118, 2-(4,5-dichloro-2-methyl-phenyl)-1H-1,6-naphthyridin-4-one]	500 to 2000
Cc1cc(C)c(-c2cc(=O)c3c(C#N)cccc3[nH]2)cc1C [Compound 123, 4-oxo-2-(2,4,5-trimethylphenyl)-1H-quinoline-5-carbonitrile]	500 to 2000
Cc1cc(C)c(-c2cc(=O)c3ccccc3[nH]2)cc1C [Compound 124, 2-(2,4,5-trimethylphenyl)-1H-quinolin-4-one]	500 to 2000
Cc1cc(C2(C#N)CC2)ccc1-c1cc(=O)c2ccccc2[nH]1 [Compound 138, 1-[3-methyl-4-(4-oxo-1H-quinolin-2-yl)phenyl]cyclopropanecarbonitrile]	2000 to 5000
CCOC(=O)c1ccc(-c2cc(=O)c3ccccc3[nH]2)c(C)c1 [Compound 166, ethyl 3-methyl-4-(4-oxo-1H-quinolin-2-yl)benzoate]	2000 to 5000
COC(C)(C)c1ccc(-c2cc(=O)c3ccccc3[nH]2)c(C)c1 [Compound 180, 2-[4-(1-methoxy-1-methyl-ethyl)-2-methyl-phenyl]-1H-quinolin-4-one]	500 to 2000
Cc1cc(-c2cc(=O)c3c[n+]([O-])ccc3[nH]2)c(C)nc1C(C)(C)C [Compound 195, 2-(6-tert-butyl-2,5-dimethyl-3-pyridyl)-6-oxido-1H-1,6-naphthyridin-6-ium-4-one]	500 to 2000
COc1cccc2[nH]c(-c3ccc(C4(C(F)(F)F)CC4)cc3C)cc(=O)c12 [Compound 208, 5-methoxy-2-[2-methyl-4-[1-(trifluoromethyl)cyclopropyl]phenyl]-1H-quinolin-4-one]	500 to 2000
CCc1cc(-c2cc(=O)c3c(C(N)=O)nccc3[nH]2)c(C)cc1C [Compound 224, 2-(5-ethyl-2,4-dimethyl-phenyl)-4-oxo-1H-1,6-naphthyridine-5-carboxamide]	500 to 2000
CC(C)(C)c1ccc(-c2cc(=O)c3c(C(N)=O)nccc3[nH]2)c(F)c1 [Compound 228, 2-(4-tert-butyl-2-fluoro-phenyl)-4-oxo-1H-1,6-naphthyridine-5-carboxamide]	500 to 2000
Cc1cc(-c2cc(=O)c3c(C(N)=O)nccc3[nH]2)c(C)cc1Cl [Compound 231, 2-(4-chloro-2,5-dimethyl-phenyl)-4-oxo-1H-1,6-naphthyridine-5-carboxamide]	500 to 2000
Cc1cc(C)c(C(C)C)cc1-c1cc(=O)c2c(C(N)=O)nccc2[nH]1 [Compound 234, 2-(5-isopropyl-2,4-dimethyl-phenyl)-4-oxo-1H-1,6-naphthyridine-5-carboxamide]	500 to 2000
CC1(C)CCC(C)(C)c2cc(-c3cc(=O)c4c(C(N)=O)nccc4[nH]3)ccc21 [Compound 239, 4-oxo-2-(1,1,4,4-tetramethyltetralin-6-yl)-1H-1,6-naphthyridine-5-carboxamide]	500 to 2000
